Test results: article PMC5836806 (Bioorganic & medicinal chemistry letters, 2018)

Target: T1, human mPGES-1 (Homo sapiens, UniProt O14684)
T1 sequence (O14684 1-152): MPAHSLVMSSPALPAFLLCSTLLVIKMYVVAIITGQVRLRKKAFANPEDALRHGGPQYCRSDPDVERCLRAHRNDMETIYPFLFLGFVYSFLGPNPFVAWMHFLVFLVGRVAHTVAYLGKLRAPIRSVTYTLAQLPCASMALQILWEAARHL
Test: in vitro inhibition of human mPGES-1
Type: biochemical
Conditions: Table 2

| activity against human mPGES-1 in words | Compound |
| --- | --- |
| not very active | CCCCCCOc1ccc(-c2nn(-c3ccc(Cl)cc3)cc2C=C(C#N)C#N)cc1 [14b] |
| not very active | CCCCCCOc1ccc(-c2nn(-c3ccc(Cl)cc3)cc2/C=C(\C#N)C(N)=O)cc1 [14c] |

More lines, now with the values behind:

| Compound | activity against human mPGES-1 in words |
| --- | --- |
| CCOc1ccc(-c2nn(-c3ccc(Cl)cc3)cc2/C=C(\C#N)C(=O)O)cc1 [13a] | submicromolar potency |
| CCOc1ccc(-c2nn(-c3ccc(Cl)cc3)cc2C=C(C#N)C#N)cc1 [13b] | not very active |
| CCOc1ccc(-c2nn(-c3ccc(Cl)cc3)cc2/C=C(\C#N)C(N)=O)cc1 [13c] | not very active |
| CCCCCCOc1ccc(-c2nn(-c3ccc(Cl)cc3)cc2/C=C(\C#N)C(=O)O)cc1 [14a] | submicromolar potency |

Test system: COX-1/2 (mixed COX-1 and COX-2)
Test: inhibition of mixed COX-1 and COX-2
Type: biochemical
Conditions: summary

| Compound | inhibition against COX-1/2 in words |
| --- | --- |
| CCCCCCOc1ccc(-c2nn(-c3ccc(Cl)cc3)cc2/C=C2/SC(=O)N(CC(=O)O)C2=O)cc1 [14f] | without significant inhibition |
